Results on twelve molecules are retold here after ChEMBL document CHEMBL5375985, “Discovery of JN122, a Spiroindoline-Containing Molecule that Inhibits MDM2/p53 Protein-Protein Interaction and Exerts Robust In Vivo Antitumor Efficacy” (J Med Chem, 2023).

A word on the Ki: it is the dissociation constant of the complex between target and ligand, obtained from inhibition or displacement. For orientation: IC50 means the concentration needed to halve the response being measured. A lower IC50 goes with greater potency in that assay.

Assay [1] deals with Tumour suppressor p53/oncoprotein Mdm2 (Homo sapiens, UniProt Q00987). The experiment in a line: Binding affinity to MDM2/p53 (unknown origin) assessed as inhibition constant by FP assay.
Sequence of Tumour suppressor p53/oncoprotein Mdm2 (P04637 whole entry): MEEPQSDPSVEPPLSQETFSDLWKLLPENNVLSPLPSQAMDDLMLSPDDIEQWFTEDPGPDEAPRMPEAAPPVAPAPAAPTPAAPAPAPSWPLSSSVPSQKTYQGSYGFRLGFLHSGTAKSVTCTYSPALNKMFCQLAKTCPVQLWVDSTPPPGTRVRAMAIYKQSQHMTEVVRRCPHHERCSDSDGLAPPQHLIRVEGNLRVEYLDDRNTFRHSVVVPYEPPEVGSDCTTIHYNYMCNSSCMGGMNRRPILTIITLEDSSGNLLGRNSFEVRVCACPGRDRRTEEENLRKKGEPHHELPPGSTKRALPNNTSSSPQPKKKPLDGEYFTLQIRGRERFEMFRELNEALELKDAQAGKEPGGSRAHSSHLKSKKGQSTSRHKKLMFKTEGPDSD
Sequence of Tumour suppressor p53/oncoprotein Mdm2 (Q00987 whole entry): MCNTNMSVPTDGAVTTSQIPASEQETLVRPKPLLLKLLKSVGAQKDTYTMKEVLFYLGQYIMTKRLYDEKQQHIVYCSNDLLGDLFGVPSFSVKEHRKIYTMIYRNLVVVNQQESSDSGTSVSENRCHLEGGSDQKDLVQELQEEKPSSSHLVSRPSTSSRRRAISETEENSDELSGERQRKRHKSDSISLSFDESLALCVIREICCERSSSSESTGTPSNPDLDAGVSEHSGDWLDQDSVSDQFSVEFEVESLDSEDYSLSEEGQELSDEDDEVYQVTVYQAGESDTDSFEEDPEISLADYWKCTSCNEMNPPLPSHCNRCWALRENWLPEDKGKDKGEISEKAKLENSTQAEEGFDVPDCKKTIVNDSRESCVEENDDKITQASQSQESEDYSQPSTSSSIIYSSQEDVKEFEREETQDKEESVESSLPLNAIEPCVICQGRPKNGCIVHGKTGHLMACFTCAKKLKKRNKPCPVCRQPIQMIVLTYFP
The target in assay [2] is Tumour suppressor protein p53/Mdm4 (Homo sapiens, UniProt O15151). In words: Binding affinity to MDM4/p53 (unknown origin) assessed as inhibition constant by FP assay.
Sequence of Tumour suppressor protein p53/Mdm4 (P04637 whole entry, one chain of several): as the sequence (P04637 whole entry) above
The target in the next assay is T1, Protein Mdm4 (Homo sapiens, UniProt O15151).
T1 sequence (O15151 whole entry): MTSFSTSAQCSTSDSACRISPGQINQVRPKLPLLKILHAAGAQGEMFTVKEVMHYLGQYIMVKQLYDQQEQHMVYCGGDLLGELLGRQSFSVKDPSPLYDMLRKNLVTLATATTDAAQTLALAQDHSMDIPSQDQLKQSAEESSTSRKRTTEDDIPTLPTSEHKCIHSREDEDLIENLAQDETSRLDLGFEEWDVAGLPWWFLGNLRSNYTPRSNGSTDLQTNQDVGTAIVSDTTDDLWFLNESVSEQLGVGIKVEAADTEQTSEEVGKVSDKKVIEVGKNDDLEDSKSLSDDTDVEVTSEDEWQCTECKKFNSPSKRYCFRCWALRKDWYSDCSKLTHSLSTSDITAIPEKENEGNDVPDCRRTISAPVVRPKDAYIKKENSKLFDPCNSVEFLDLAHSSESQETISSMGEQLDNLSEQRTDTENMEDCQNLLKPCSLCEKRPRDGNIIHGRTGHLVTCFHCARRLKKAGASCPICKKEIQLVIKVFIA
In words: biochemical.

The subject of assay [3] is HCT-116. In words: Antiproliferative activity against human HCT-116 cells harboring p53 assessed inhibition of cell growth incubated for 4 days by CCK-8 assay. The following applies: HCT-116, 96 h. (Tetrazolium assays rely on reduction of a dye to a coloured formazan, in cell work by metabolically active cells.)
In the next assay the test system is RKO. The experiment in a line: Antiproliferative activity against human RKO cells harboring p53 assessed inhibition of cell growth incubated for 4 days by CCK-8 assay. The conditions noted are these: 96 h.
Another assay relates to U2OS. In words: Antiproliferative activity against human U2OS cells harboring p53 assessed inhibition of cell growth incubated for 4 days by celltiter-glo assay. The conditions noted are these: 96 h.
The subject of another assay is NCI-H460. In words: Growth inhibition of human NCI-H460 cells harboring p53 incubated for 4 days by CCK-8 assay. The following applies: NCI-H460, 96 h.
Another assay has as its system SW480. The experiment in a line: Growth inhibition of human SW480 cells incubated for 4 days by CCK-8 assay. The conditions noted are these: SW480, 96 h.
The next assay has as its system A549. In words: Growth inhibition of human A549 cells harboring p53 incubated for 4 days by CCK-8 assay. The following applies: A549, 96 h.
For another assay, the system named is HeLa. In words: Growth inhibition of human HeLa cells harboring p53 incubated for 4 days by CCK-8 assay. The following applies: 96 h.
A further assay concerns HepG2. In words: Growth inhibition of human HepG2 cells harboring p53 incubated for 4 days by celltiter glo assay. The following applies: HepG2, 96 h. Background: Cellular ATP, detected with luciferase, serves as a proxy for viable cell number.
For the next assay, the system named is MSTO-211H. In words: cells. The following applies: Homo sapiens, 96 h.
In assay [4] the test system is HCT-116. In words: Antiproliferative activity against human HCT-116 cells harboring p53 assessed inhibition of cell growth incubated for 4 days by celltiter-glo assay. The conditions noted are these: HCT-116, 96 h.

SMILES strings stand for the structures.

Description for MSTO-211H: Growth inhibition of human MSTO-211H cells harboring p53 incubated for 4 days by CCK-8 assay
Description for Protein Mdm4: Inhibition of MDM4 (14 to 111 residues)/p53 (unknown origin) interaction expressed in Escherichia coli BL21(DE3) cells assessed as inhibition constant incubated for 1.5 hrs by competitive fluorescence polarization assay

`O=C1CN(C(=O)N2C(c3ccc4c(c3)C(=O)NCC(=O)N4c3ccccc3)=N[C@@H](c3ccc(Cl)cc3)[C@H]2c2ccc(Cl)cc2)CCN1`: the inhibition constant (Ki) in assay [1] was found to be 2.1 nM; in assay [2] it was 10.8 nM.

In the case of `CNC(=O)c1ccc(NC(=O)[C@@H]2N[C@@H](CC(C)(C)C)[C@@]3(CNc4cc(Cl)ccc43)[C@H]2c2cccc(Cl)c2F)c(OC)c1`, the inhibition constant (Ki) at Protein Mdm4 was above 27 nM. The 50% inhibitory concentration (IC50) turned out to be 22 nM with HCT-116 [3] and 243 nM in the assay on RKO.

For `CCN1[C@@H](CC(C)(C)C)[C@@]2(CNc3ccc(Cl)cc32)[C@@H](c2cccc(Cl)c2Cl)[C@@H]1C(=O)Nc1ccc(C(=O)O)cc1OC`, the half-maximal inhibitory concentration (IC50) with U2OS stood at 1840 nM; in the assay on HCT-116 [3] it was 1400 nM; in the assay with RKO it was 4430 nM.

Consider `COc1ccc(C2=N[C@@H](c3ccc(Cl)cc3)[C@@H](c3ccc(Cl)cc3)N2C(=O)N2CCNC(=O)C2)c(OC(C)C)c1` [NUTLIN-3], for which the IC50 was found to be 6.49 nM in the assay on NCI-H460; 24.1 nM in the assay on SW480; 1880 nM in the assay on A549; 28.2 nM with HeLa; 1040 nM in the assay on HCT-116 [3]; 2050 nM in the assay with HepG2. The IC50 in the assay with RKO is 1920 nM; with MSTO-211H, 2800 nM.

For the molecule `CCN1[C@@H](CC(C)(C)C)[C@@]2(CNc3cc(Cl)ccc32)[C@@H](c2ccccc2F)[C@@H]1C(=O)Nc1ccc(C(=O)O)cc1OC`, the concentration for half-maximal inhibition (IC50) with U2OS stood at 3410 nM; in the assay with HCT-116 [3], 865 nM; in the assay on RKO it was 2940 nM.

On to `CCN1[C@@H](CC(C)(C)C)[C@@]2(CNc3cc(Cl)ccc32)[C@@H](c2ccccc2Cl)[C@@H]1C(=O)Nc1ccc(C(=O)O)cc1OC`, for which the half-maximal inhibitory concentration (IC50) in the assay on U2OS turned out to be 2820 nM; in the assay on HCT-116 [3] it was 2040 nM; in the assay on RKO it was 5240 nM.

As for `CCN1[C@@H](CC(C)(C)C)[C@@]2(CNc3cc(Cl)ccc32)[C@@H](c2cccc(Cl)c2Cl)[C@@H]1C(=O)Nc1ccc(C(=O)O)cc1OC`, the values for the 50% inhibitory concentration (IC50) in the assay with U2OS, in the assay with HCT-116 [3] and in the assay with RKO were 647 nM, 75.5 nM and 330 nM, respectively.

Regarding `COc1cc(C(=O)O)ccc1NC(=O)[C@@H]1N[C@@H](CC(C)(C)C)[C@@]2(CNc3cc(Cl)ccc32)[C@H]1c1cccc(Cl)c1`, the IC50 with HCT-116 [4] is below 1 nM; in the assay on RKO it was 12.9 nM.

`COc1cc(C(=O)O)ccc1NC(=O)[C@@H]1N[C@@H](CC(C)(C)C)[C@@]2(CNc3cc(Cl)ccc32)[C@H]1c1cccc(C)c1`: the half-inhibitory concentration (IC50) worked out at 10 nM with HCT-116 [3] and 436 nM in the assay with RKO.

As to `CCN1[C@@H](CC(C)(C)C)[C@@]2(CNc3cc(Cl)ccc32)[C@@H](c2cccc(F)c2)[C@@H]1C(=O)Nc1ccc(C(=O)O)cc1OC`, the IC50 in the assay on U2OS turned out to be 304 nM; with HCT-116 [3], 25.7 nM; with RKO, 172 nM.

For the molecule `COc1cc(C(=O)O)ccc1NC(=O)[C@@H]1N[C@@H](CC(C)(C)C)[C@@]2(CNc3cc(Cl)ccc32)[C@H]1c1cccc(F)c1`, the IC50 amounted to 1.3 nM in the assay on HCT-116 [3] and 66.9 nM in the assay on RKO.

`CCN1[C@@H](CC(C)(C)C)[C@@]2(CNc3cc(Cl)ccc32)[C@@H](c2cccc(C)c2)[C@@H]1C(=O)Nc1ccc(C(=O)O)cc1OC`: the half-inhibitory concentration (IC50) with U2OS was 625 nM; in the assay with HCT-116 [3], 144 nM; in the assay with RKO, 1010 nM.
